Laboratory results reported in article PMC6407578, “Synthesis and biological evaluation of ursolic acid derivatives bearing triazole moieties as potential anti-Toxoplasma gondii agents” (Journal of Enzyme Inhibition and Medicinal Chemistry, 2019).

Assays:
[1] = test system: T. gondii RH strain tachyzoites; assay: In vitro T. gondii growth inhibition in HeLa host cells (MTT); assay type: cell-based, Toxoplasma gondii; settings: for IC50: Toxoplasma gondii, median inhibitory concentration, tachyzoite inhibition, HeLa host cells, 24 h; for SI (selectivity index): IC50 in HeLa cells/IC50 in T. gondii
Description: (§1) The cytotoxicity of compounds was determined using the previously published thiazolyl blue-based colorimetric method. For this, HeLa cells were used as host cells and their ability to resist invasion by T. gondii RH strain tachyzoites in vitro was checked. The cells were plated in 96-well plates at an appropriate density to ensure exponential growth throughout the experimental period (3 × 10^3 cells per well) and then allowed to adhere for 24 h at 37 °C. The cells were infected with T. gondii (1.5 × 10^4 tachyzoites/well), followed by incubation for 24 h. All compounds were prepared in dimethyl sulfoxide (DMSO) at a stock concentration of 100 mM. Serial dilutions (1–1000 μM) of each compound were tested. Spiramycin was used as a positive control. After 24 h of incubation, 10 μL of MTT solution were added to each well and cells were incubated for a further 2 h. The optical density (OD) was read on a microplate reader at a wavelength of 492 nm. The IC50 in HeLa cells, IC50 in T. gondii and selectivity index were calculated using Microsoft Excel.

HeLa cells = assay: Cytotoxicity on HeLa host cells (MTT); assay type: cell-based; settings: Homo sapiens, HeLa, median toxicity dose, cytotoxicity against host cells, 24 h
Description: as §1

Row | SMILES | melting point [°C] | IC50 [1] [µM] | IC50 (HeLa cells) [µM] | SI (selectivity index) [1]
1 | C[C@H]1[C@H](C)CC[C@]2(C(=O)OCC(=O)NCc3cn(-c4ccccc4)nn3)CC[C@]3(C)C(=CC[C@@H]4[C@@]5(C)CCC(O)C(C)(C)[C@@H]5CC[C@]43C)[C@H]12 (stereo partly drawn) [2a, (1S,2R,4aS,6aS,6bR,8aR,12aR,12bR,14bS)-2-oxo-2-((1-phenyl-1H-1,2,3-triazol-4-yl)methylamino)ethyl-10-hydroxy-1,2,6a,6b,9,9,12a-heptamethyl-1,2,3,4,4a,5,6,6a,6b,7,8,8a,9,10,11,12,12a,12b,13,14b-icosahydropicene-4a-carboxylate] | 170 to 172 | > 1000 | 837 | –
2 | C[C@H]1[C@H](C)CC[C@]2(C(=O)O)CC[C@]3(C)C(=CC[C@@H]4[C@@]5(C)C/C(=C\c6cn(-c7ccc(F)cc7)nn6)C(=O)C(C)(C)[C@@H]5CC[C@]43C)[C@H]12 [1d, (1S,2R,4aS,6aS,6bR,8aR,12aR,12bR,14bS,E)-11-((1–(4-fluorophenyl)-1H-1,2,3-triazol-4-yl)methylene)-1,2,6a,6b,9,9,12a-heptamethyl-10-oxo-1,3,4,5,6,6a,6b,7,8,8a,9,10,11,12,12a,12b,13,14b-octadecahydropicene-4a(2H)-carboxylic acid] | > 250 | > 1000 | > 1000 | –
3 | C[C@H]1[C@H](C)CC[C@]2(C(=O)OCCn3cnnc3-c3ccc(F)cc3)CC[C@]3(C)C(=CC[C@@H]4[C@@]5(C)CCC(O)C(C)(C)[C@@H]5CC[C@]43C)[C@H]12 (stereo partly drawn) [3c, 2 –(3-(4-fluorophenyl)-4H-1,2,4-triazol-4-yl)ethyl(1S,2R,4aS,6aS,6bR,8aR,12aR,12bR,14bS)-10-hydroxy-1,2,6a,6b,9,9,12a-heptamethyl-1,3,4,5,6,6a,6b,7,8,8a,9,10,11,12,12a,12b,13,14b-octadecahydropicene-4a(2H)-carboxylate] | – | 61.4 | 88.2 | 1.44
4 | C[C@H]1[C@H](C)CC[C@]2(C(=O)O)CC[C@]3(C)C(=CC[C@@H]4[C@@]5(C)C/C(=C\c6cn(-c7ccccc7)nn6)C(=O)C(C)(C)[C@@H]5CC[C@]43C)[C@H]12 [1a, (1S,2R,4aS,6aS,6bR,8aR,12aR,12bR,14bS,E)-1,2,6a,6b,9,9,12a-heptamethyl-10-oxo-11-((1-phenyl-1H-1,2,3-triazol-4-yl)methylene)-1,3,4,5,6,6a,6b,7,8,8a,9,10,11,12,12a,12b,13,14b-octadecahydropicene-4a(2H)-carboxylic acid] | > 250 | > 1000 | > 1000 | –
5 | COc1ccccc1-n1cc(/C=C2\C[C@]3(C)[C@H]4CC=C5[C@@H]6[C@@H](C)[C@H](C)CC[C@]6(C(=O)O)CC[C@@]5(C)[C@]4(C)CC[C@H]3C(C)(C)C2=O)nn1 [1i, (1S,2R,4aS,6aS,6bR,8aR,12aR,12bR,14bS,E)-11-((1–(2-methoxyphenyl)-1H-1,2,3-triazol-4-yl)methylene)-1,2,6a,6b,9,9,12a-heptamethyl-10-oxo-1,3,4,5,6,6a,6b,7,8,8a,9,10,11,12,12a,12b,13,14b-octadecahydropicene-4a(2H)-carboxylic acid] | > 250 | > 1000 | > 1000 | –
6 | C[C@H]1[C@H](C)CC[C@]2(C(=O)O)CC[C@]3(C)C(=CC[C@@H]4[C@@]5(C)C/C(=C\c6cn(-c7cccc(F)c7)nn6)C(=O)C(C)(C)[C@@H]5CC[C@]43C)[C@H]12 [1c, (1S,2R,4aS,6aS,6bR,8aR,12aR,12bR,14bS,E)-11-((1–(3-fluorophenyl)-1H-1,2,3-triazol-4-yl)methylene)-1,2,6a,6b,9,9,12a-heptamethyl-10-oxo-1,3,4,5,6,6a,6b,7,8,8a,9,10,11,12,12a,12b,13,14b-octadecahydropicene-4a(2H)-carboxylic acid] | > 250 | > 1000 | > 1000 | –
7 | COc1ccc(-n2cc(CNC(=O)COC(=O)[C@]34CC[C@@H](C)[C@H](C)[C@H]3C3=CC[C@@H]5[C@@]6(C)CCC(O)C(C)(C)[C@@H]6CC[C@@]5(C)[C@]3(C)CC4)nn2)cc1 (stereo partly drawn) [2c, (1S,2R,4aS,6aS,6bR,8aR,12aR,12bR,14bS)-2-((1–(4-methoxyphenyl)-1H-1,2,3-triazol-4-yl)methylamino)-2-oxoethyl-10-hydroxy-1,2,6a,6b,9,9,12a-heptamethyl-1,2,3,4,4a,5,6,6a,6b,7,8,8a,9,10,11,12,12a,12b,13,14b-icosahydropicene-4a-carboxylate] | 180 to 181 | > 1000 | > 1000 | –
8 | C[C@H]1[C@H](C)CC[C@]2(C(=O)OCC(=O)NCc3cn(-c4ccc(Cl)c(Cl)c4)nn3)CC[C@]3(C)C(=CC[C@@H]4[C@@]5(C)CCC(O)C(C)(C)[C@@H]5CC[C@]43C)[C@H]12 (stereo partly drawn) [2e, (1S,2R,4aS,6aS,6bR,8aR,12aR,12bR,14bS)-2-((1–(3,4-dichlorophenyl)-1H-1,2,3-triazol-4-yl)methylamino)-2-oxoethyl-10-hydroxy-1,2,6a,6b,9,9,12a-heptamethyl-1,2,3,4,4a,5,6,6a,6b,7,8,8a,9,10,11,12,12a,12b,13,14b-icosahydropicene-4a-carboxylate] | 203 to 204 | > 1000 | > 1000 | –
9 | Cc1ccc(-n2cc(CNC(=O)COC(=O)[C@]34CC[C@@H](C)[C@H](C)[C@H]3C3=CC[C@@H]5[C@@]6(C)CCC(O)C(C)(C)[C@@H]6CC[C@@]5(C)[C@]3(C)CC4)nn2)cc1 (stereo partly drawn) [2d, (1S,2R,4aS,6aS,6bR,8aR,12aR,12bR,14bS)-2-oxo-2-((1-p-tolyl-1H-1,2,3-triazol-4-yl)methylamino)ethyl-10-hydroxy-1,2,6a,6b,9,9,12a-heptamethyl-1,2,3,4,4a,5,6,6a,6b,7,8,8a,9,10,11,12,12a,12b,13,14b-icosahydropicene-4a-carboxylate] | 186 to 187 | > 1000 | > 1000 | –
10 | C[C@H]1[C@H](C)CC[C@]2(C(=O)O)CC[C@]3(C)C(=CC[C@@H]4[C@@]5(C)C/C(=C\c6cn(-c7ccccc7I)nn6)C(=O)C(C)(C)[C@@H]5CC[C@]43C)[C@H]12 [1h, (1S,2R,4aS,6aS,6bR,8aR,12aR,12bR,14bS,E)-11-((1–(2-iodophenyl)-1H-1,2,3-triazol-4-yl)methylene)-1,2,6a,6b,9,9,12a-heptamethyl-10-oxo-1,3,4,5,6,6a,6b,7,8,8a,9,10,11,12,12a,12b,13,14b-octadecahydropicene-4a(2H)-carboxylic acid] | – | 274 | 230 | 0.84
11 | COc1cc(-n2cc(/C=C3\C[C@]4(C)[C@H]5CC=C6[C@@H]7[C@@H](C)[C@H](C)CC[C@]7(C(=O)O)CC[C@@]6(C)[C@]5(C)CC[C@H]4C(C)(C)C3=O)nn2)cc(OC)c1OC [1j, (1S,2R,4aS,6aS,6bR,8aR,12aR,12bR,14bS,E)-1,2,6a,6b,9,9,12a-heptamethyl-10-oxo-11-((1–(3,4,5-trimethoxyphenyl)-1H-1,2,3-triazol-4-yl)methylene)-1,3,4,5,6,6a,6b,7,8,8a,9,10,11,12,12a,12b,13,14b-octadecahydropicene-4a(2H)-carboxylic acid] | – | 301 | 354 | 1.17
12 | C[C@H]1[C@H](C)CC[C@]2(C(=O)O)CC[C@]3(C)C(=CC[C@@H]4[C@@]5(C)C/C(=C\c6cn(-c7ccccc7Br)nn6)C(=O)C(C)(C)[C@@H]5CC[C@]43C)[C@H]12 [1g, (1S,2R,4aS,6aS,6bR,8aR,12aR,12bR,14bS,E)-11-((1–(2-bromophenyl)-1H-1,2,3-triazol-4-yl)methylene)-1,2,6a,6b,9,9,12a-heptamethyl-10-oxo-1,3,4,5,6,6a,6b,7,8,8a,9,10,11,12,12a,12b,13,14b-octadecahydropicene-4a(2H)-carboxylic acid] | – | 302 | 240 | 0.80
13 | C[C@H]1[C@H](C)CC[C@]2(C(=O)OCCn3cnnc3-c3ccccc3)CC[C@]3(C)C(=CC[C@@H]4[C@@]5(C)CCC(O)C(C)(C)[C@@H]5CC[C@]43C)[C@H]12 (stereo partly drawn) [3a, 2 –(3-phenyl-4H-1,2,4-triazol-4-yl)ethyl(1S,2R,4aS,6aS,6bR,8aR,12aR,12bR,14bS)-10-hydroxy-1,2,6a,6b,9,9,12a-heptamethyl-1,3,4,5,6,6a,6b,7,8,8a,9,10,11,12,12a,12b,13,14b-octadecahydropicene-4a(2H)-carboxylate] | – | 88 | 102 | 1.15

More lines, main results first:

Row | melting point [°C] | SMILES | IC50 [1] [µM] | IC50 (HeLa cells) [µM] | SI (selectivity index) [1]
14 | 233 to 235 | COc1ccc(-c2nncn2CCOC(=O)[C@]23CC[C@@H](C)[C@H](C)[C@H]2C2=CC[C@@H]4[C@@]5(C)CCC(O)C(C)(C)[C@@H]5CC[C@@]4(C)[C@]2(C)CC3)cc1 (stereo partly drawn) [3e, 2 –(3-(4-methoxyphenyl)-4H-1,2,4-triazol-4-yl)ethyl(1S,2R,4aS,6aS,6bR,8aR,12aR,12bR,14bS)-10-hydroxy-1,2,6a,6b,9,9,12a-heptamethyl-1,3,4,5,6,6a,6b,7,8,8a,9,10,11,12,12a,12b,13,14b-octadecahydropicene-4a(2H)-carboxylate] | 116 | 78.2 | 0.67
15 | 245 to 246 | C[C@H]1[C@H](C)CC[C@]2(C(=O)OCCn3cnnc3-c3ccc(Cl)cc3)CC[C@]3(C)C(=CC[C@@H]4[C@@]5(C)CCC(O)C(C)(C)[C@@H]5CC[C@]43C)[C@H]12 (stereo partly drawn) [3b, 2 –(3-(4-chlorophenyl)-4H-1,2,4-triazol-4-yl)ethyl(1S,2R,4aS,6aS,6bR,8aR,12aR,12bR,14bS)-10-hydroxy-1,2,6a,6b,9,9,12a-heptamethyl-1,3,4,5,6,6a,6b,7,8,8a,9,10,11,12,12a,12b,13,14b-octadecahydropicene-4a(2H)-carboxylate] | 6.7 | 2.4 | 0.36
